Publication PMC5515887, “Ruthenium-conjugated chrysin analogues modulate platelet activity, thrombus formation and haemostasis with enhanced efficacy” (Scientific Reports, 2017)

Tests used:
[1] = tested on: human washed platelets; test: CRP-XL-induced aggregation of human washed platelets (optical aggregometry); assay type: cell-based; settings: CRP-XL 0.5 μg/mL
Description: To determine the effects of chrysin and thio-chrysin and their Ru-complexes in the modulation of platelet activation, aggregation assays were performed using cross-linked collagen-related peptide (CRP-XL) as a platelet agonist, by optical aggregometry. Firstly, to determine the effects of chrysin and its derivatives on isolated platelets, aggregation assays were performed using human washed platelets (devoid of plasma proteins and other blood cells).
Figure 2 Effects of chrysin and its derivatives in washed platelet aggregation. […] The aggregation traces shown are representative of three separate experiments.
(§1) The preparation of human platelets and aggregation assays were performed using standard protocols as described by us previously, [16]. Briefly, human blood was collected in 3.2% citrate containing vacutainers via venepuncture from healthy, aspirin-free individuals with informed consent in accordance with the methods approved by the University of Reading Research Ethics Committee. All methods were performed in accordance with the relevant institutional and national guidelines and regulations. Blood samples were centrifuged at 102 g for 20 minutes at room temperature to separate the PRP, which was used in aggregation, flow cytometry, static platelet adhesion, calcium mobilisation and clot retraction assays. For the preparation of washed platelets, 50 mL of blood samples were mixed with 7.5 mL of ACD (acid citrate dextrose) (20 g/L glucose, 25 g/L sodium citrate and 15 g/L citric acid) and centrifuged at 102 g for 20 minutes at room temperature. The PRP was carefully aspirated from the other blood cells prior to mixing with 3 mL of ACD and centrifuging at 1413 g for 10 minutes at room temperature. The resulting platelet pellet was re-suspended in modified Tyrodes-HEPES buffer (2.9 mM KCl, 134 mM NaCl, 0.34 mM Na2HPO4.12H20, 1 mM MgCl2, 12 mM NaHCO3, 20 mM HEPES, pH 7.3) and washed by centrifuging again at 1413 g for 10 minutes. The resulting platelet pellet was suspended in modified Tyrodes-HEPES buffer at a density of 4 × 10^8 cells/mL for aggregation, dense granule secretion, cellular uptake studies and calcium mobilisation assays. Human platelet aggregation was performed using CRP-XL as an agonist in the presence and absence of various concentrations of chrysin and its synthetic derivatives by optical aggregometry. A vehicle control [DMSO at a concentration of less than 0.1% (v/v)] was included in all the experiments. Dense granule secretion in platelets was determined by measuring the ATP release using the luciferin-luciferase reagent by lumi-aggregometry (Chrono-Log, USA). SDS-PAGE and immunoblotting analysis were performed using standard protocols. The rabbit anti-phospho-specific antibodies for human AKT pS473, FAK pY397 and Src pY527 were obtained from Abcam, UK and rabbit anti-human 14-3-3ζ (Santa Cruz Biotechnology, USA) was used to detect protein 14-3-3ζ as a loading control in immunoblot assays. The Cy5-conjugated goat anti-rabbit IgG (Life technologies, UK) was used as the secondary antibody.

[2] = tested on: human platelet-rich plasma (PRP); test: CRP-XL-induced platelet aggregation in human platelet-rich plasma (optical aggregometry); assay type: cell-based
Description: Therefore, to determine the effects of various concentrations of chrysin and its derivatives in the presence of plasma proteins, aggregation assays were performed using human platelet-rich plasma (PRP) and 0.5 μg/mL CRP-XL.
Figure 3 Impact of chrysin and its derivatives on platelet activation in platelet-rich plasma. […] The platelet aggregation was monitored for 5 minutes. The traces shown are representative of three separate experiments.
as §1

[3] = tested on: outside-in signalling by integrin αIIbβ3; test: Clot retraction assay (outside-in signalling by integrin αIIbβ3); assay type: cell-based, human; settings: PRP; 50 μM compound; 1 U/mL thrombin; three hours
Description: R represents ‘resting’ platelets.
Following fibrinogen binding, integrin αIIbβ3 triggers signalling into the platelets in order to induce clot retraction and promote wound healing. This also represents a late downstream signalling event in the platelet activation process. To determine whether chrysin and its derivatives affect outside-in signalling by integrin αIIbβ3, a clot retraction assay was performed. […] At three hours, the clot obtained with the vehicle control [0.1% (v/v) DMSO] retracted to around 50 mg.
PRP (200 µL) was mixed with 5 µL of red blood cells and the final volume was made to 950 µL with modified Tyrodes-HEPES buffer in the presence and absence of various concentrations of chrysin or its synthetic derivatives. Clot formation was initiated by adding 1 U/mL (50 µL) thrombin. A glass capillary was placed in middle of the tube and the clot retraction was observed over a period of 3 hours at room temperature. Clot weight was measured as a marker for clot retraction after 3 hours.

[4] = tested on: dense granule secretion in washed platelets; test: ATP release by lumi-aggregometry (marker for dense granule secretion); assay type: cell-based, human; settings: 100 μM compound, CRP-XL 0.5 μg/mL
Description: Figure 5 Chrysin and its derivatives affect granule secretion in platelets. […] The level of P-selectin (as a marker for α-granule secretion) was quantified using PECy5-labelled anti-human P-selectin antibodies by flow cytometry. […] R represents ‘resting’ platelets. […] Platelets were then activated with 0.5 μg/mL CRP-XL and the ATP release was monitored for 5 minutes by lumi-aggregometry. The traces shown are representative of three separate experiments.
The preparation of human platelets and aggregation assays were performed using standard protocols as described by us previously, [16]. Briefly, human blood was collected in 3.2% citrate containing vacutainers via venepuncture from healthy, aspirin-free individuals with informed consent in accordance with the methods approved by the University of Reading Research Ethics Committee. All methods were performed in accordance with the relevant institutional and national guidelines and regulations. Blood samples were centrifuged at 102 g for 20 minutes at room temperature to separate the PRP, which was used in aggregation, flow cytometry, static platelet adhesion, calcium mobilisation and clot retraction assays. […] Dense granule secretion in platelets was determined by measuring the ATP release using the luciferin-luciferase reagent by lumi-aggregometry (Chrono-Log, USA). […]

[5] = tested on: platelet adhesion (integrins αIIbβ3 and α2β1); test: Static platelet adhesion assay on collagen, CRP-XL and fibrinogen; assay type: cell-based, human; settings: PRP; static conditions; in the presence and absence of integrilin (4 µM)
Description: Integrins αIIbβ3 and α2β1 play critical roles in platelet adhesion to different matrix proteins such as fibrinogen and collagen, respectively.
Micro titre plates (96 well) were coated with 1 μg/100 μL/well of fibrinogen, collagen or CRP-XL followed by incubation at 4 °C for overnight. Following the removal of unbound proteins/peptide, the wells were blocked with 1% bovine serum albumin in modified Tyrodes-HEPES buffer for 1 hour. The plates were then washed three times with modified Tyrode’s-HEPES buffer prior to adding human PRP (1 × 10^8 cells/mL, 50 μL/well) and incubated at room temperature for 1 hour. Non-adhered platelets were discarded and then the wells were washed with modified Tyrodes-HEPES buffer. Citrate lysis buffer (100 μL/well) was added and incubated for 1 hour at room temperature. Finally, 100 μL of 2 M NaOH was added to all the wells to stop the reaction and the absorbance was measured at 405 nm using a Fluostar Optima spectrofluorimeter (BMG Labtech, Germany). Experiments were performed both in the absence and presence of integrilin (4 μM) (an antagonist for integrin αIIbβ3).

[6] = tested on: human washed platelets; test: Intracellular calcium mobilisation in washed platelets (Fluo-4 AM); assay type: cell-based; settings: CRP-XL 0.5 μg/mL
Description: Based on the above results achieved in washed platelets and PRP, chrysin and Ru-thio-chrysin were tested to evaluate their effects on the modulation of calcium mobilisation.
The calcium traces (Ai and Bi) shown are representative of three separate experiments. The maximum fluorescence obtained with each sample was converted into percentages to calculate the level of calcium mobilisation obtained with vehicle and chrysin or Ru-thio-chrysin treated samples.
The intracellular calcium levels in platelets were measured using Fluo-4 AM calcium-sensitive dye by spectrofluorimetry. […] Data were analysed by calculating the maximum level of calcium released in each sample.

[7] = tested on: human platelet-rich plasma; settings: PRP; 100 μM compound; CRP-XL 0.5 μg/mL
Source text: The calcium traces (Ai and Bi) shown are representative of three separate experiments. […] The platelets were lysed and used for immunoblot analysis to detect the level of AKT phosphorylation at residue S473, FAK phosphorylation at Y397 and phosphorylation of Src at Y527. The level of 14-3-3ζ protein was detected as a loading control. The cropped images of the blots shown here are representative of three separate experiments. The uncropped full length blots are presented in Supplementary Information (Figure S8).

| Molecule | reduction in CRP-XL-induced platelet aggregation ([1]; 6.25 μM compound) | effect on CRP-XL-induced platelet aggregation in washed platelets [1] | effect on platelet aggregation at lower concentrations ([2]; PRP, 6.25 μM and 12.5 μM compound, CRP-XL 0.5 μg/mL) | reduction in platelet aggregation ([2]; PRP, 100 μM compound, CRP-XL 0.5 μg/mL) | effect on clot retraction [3] | inhibition at 100 µM ([4]; Homo sapiens, Platelet) [%] | effect on platelet adhesion to collagen, CRP-XL or fibrinogen [5] | effect on calcium mobilisation in washed platelets [6] | effect on platelet aggregation in PRP ([2]; PRP, CRP-XL 0.5 μg/mL) | greater inhibition of platelet function and thrombus formation in vitro than chrysin ([2]; physiologically relevant conditions such as platelet-rich plasma and whole blood) [fold] | inhibition of dense granule secretion (ATP release) [4] [%] | reduction in calcium mobilisation [7] |
| --- | --- | --- | --- | --- | --- | --- | --- | --- | --- | --- | --- | --- |
| O=c1cc(-c2ccccc2)oc2cc(O)cc(O)c12 [chrysin] | approximately 80% | inhibited CRP-XL (0.5 μg/mL)-induced aggregation in washed platelets in a concentration-dependent manner | did not exhibit significant effects | around 40% | did not show significant effects | 100 | did not affect platelet adhesion | greater inhibitory effects on calcium mobilisation than Ru-thio-chrysin |  |  |  |  |
| chlorido [(5-oxo-κO)-7-hydroxy-(2-phenyl)-4H-chromen-4-thionato-κS] (η6-p-cymene)ruthenium(II) [Ru-thio-chrysin] |  | inhibited CRP-XL-induced platelet aggregation in a concentration-dependent manner |  |  | superior effects in comparison to native chrysin |  | did not affect platelet adhesion |  | significant effect at lower concentrations including 6.25 μM | 4 | 100 | around 60% |
